Laboratory results taken from patent US5773444A, “Quinazolines as inhibitors of endothelin converting enzyme” (Warner-Lambert Company, priority 1997, dated 1998).
Counter-ions that a name gives are not always drawn. Non-standard residues stand in square brackets, D forms with d. Residues, ends and D or L forms follow the SMILES beside them. No end group written: not given here. *: point of attachment. Sta = CC(C)C[C@H](N)[C@@H](O)CC(=O)O; Isovaleryl = CC(C)CC(=O)*

Assays:
[1] = test system: isolated nonischemic and ischemic rat hearts; conditions: cited from earlier work; for preischemic increase in coronary perfusion pressure induced by big ET-1 and its proischemic effect: phosphoramidon 100 μM, BQ-123 0.3 μM; for IC50: isolated rat hearts, read-out: IC50, reduction of coronary flow; for time to contracture in globally ischemic rat hearts: pretreatment / 10 nMol big ET-1
[2] = test system: ET-1-induced bronchoconstriction and tracheal smooth muscle contraction; conditions: allergic sheep; cited from earlier work
[3] = test system: mouse model of endotoxic shock; conditions: cited from earlier work
[4] = target: T1, endothelin converting enzyme (ECE) (Homo sapiens, UniProt P42892); assay: ECE assay (partially purified ECE from EA.hy926, ET-1 production by RIA); assay type: biochemical; conditions: for IC50: 10 μM big ET-1, pH 7.0, 1.5 hours at 37° C., 3% DMSO, read-out: IC50 (Table III, Biological Activity of Compounds of the Present Invention); for inhibition of the enzyme (in words): partially purified ECE from EA.hy926; for effect on ECE activity at NEP-blocking concentration: 100 μM thiorphan or 100 nM phosphoramidon
T1 construct: ECE was partially purified from EA.hy926 grown in 150 roller; endogenous in cells; host or cells: EA.hy926 (human umbilical vein endothelial cells fused with A549); detergent-solubilised membranes, RCA-I lectin eluate

[5] = target: T1, endothelin converting enzyme (ECE); assay: Cell-based assay (ET-1 level in medium of EA.hy926 cells by RIA); conditions: read-out: IC50 (Table IV, cell-based assay)
Protocol: A permanent human cell line (EA.hy926), derived by fusing human umbilical vein endothelial cells with the permanent human cell line A549 (derived from a human lung carcinoma), was cultured as described, except that the medium also contained HAT supplements (100 μM hypoxanthine, 0.4 μM aminopterin, 16 μM thymidine). Edgell, C.-J. S., McDonald, C. C., and Graham, J. B. (1983) Proc. Natl. Acad. Sci. USA 80, 3734-3737. Cells from passages 40 to 50 were used. Subcultures were prepared by treating confluent cells with trypsin (0.5%) and seeded either onto 24 well plates for a cell-based assay or onto roller bottles for a partial purification of the enzyme.
ET-1 was measured by radioimmunoassay (RIA) as described previously with minor modifications. Ahn, K., Beningo, K., Olds, G., and Hupe, D. (1992) Proc. Nat. Acad. Sci. USA, 89, 8606-8610. Briefly, the RIA mixture (250 μl) contained the antibody against ET-1, an ET-1 sample, and [^125 I] ET-1 (15000 cpm) in buffer D. For the analysis of ET-1 from cell based assays, the final 6% bovine serum albumin was added. […] The amount of immunoreactive (ir) ET-1 was measured by counting the supernatant and determined from the standard curve. […]
EAhy926 cells (0.2-4×10^4) were seeded into 24-plates and cultures as described above. […] The ET-1 level from these samples were measured by RIA previously described. […]

[6] = test system: models of acute renal ischemia and subarachnoid hemorrhage in rats; conditions: cited from earlier work
[7] = test system: ET-1 production in cultured bovine aortic endothelial cells; conditions: intracellular accumulation of pepstatin; cited from earlier work
[8] = test system: neutral endopeptidase 24.11 (NEP 24.11); assay: NEP 24.11 inhibition under ECE assay conditions; assay type: biochemical, human; conditions: 100 μM thiorphan or 100 nM phosphoramidon
From the text: The cell line, EA.hy926, contains neutral endopeptidase 24.11 (NEP 24.11) which also cleaves big ET-1 to ET-1 and c-terminal fragment (manuscript submitted). […] All the data were obtained in the linear range of time-course curves.

[9] = test system: intracellular conversion of big ET-1 to ET-1; conditions: cultured vascular endothelial cells and smooth muscle cells; cited from earlier work
[10] = test system: pressor response of big ET; conditions: micromolar concentrations, in vitro and in vivo; cited from earlier work
[11] = test system: vasoconstrictor effects evoked by intravenous injections of big ET-1; conditions: anaesthetized pigs; cited from earlier work
[12] = test system: pressor response of big ET-1; conditions: ganglion-blocked anesthetized rats; cited from earlier work
[13] = test system: effects of big ET-1 in the microvasculature; conditions: anesthetized hamsters; cited from earlier work
[14] = test system: lethality induced by the intravenous infusion of big ET-1; conditions: in vivo; cited from earlier work
[15] = test system: caliber of the basilar artery and systemic arterial pressure; conditions: anesthetized dogs, intracisternal big ET-1; cited from earlier work
[16] = test system: rats subjected to coronary occlusion and reperfusion; conditions: given IV; cited from earlier work
[17] = test system: hemodynamic actions of big ET-1 in rat brain; conditions: cited from earlier work
[18] = test system: gastric mucosal hemorrhagic change; conditions: 50-500 pmol/kg into the left gastric artery; cited from earlier work
behavioral effects = conditions: intracerebroventricular, rats; cited from earlier work
blood pressure = conditions: in vivo; cited from earlier work
[19] = target: T2, endothelin converting enzyme (ECE) (Homo sapiens, UniProt P42892); assay: ECE assay (partially purified ECE from EA.hy926, ET-1 production by RIA); assay type: biochemical; conditions: partially purified ECE from EA.hy926
T2 construct: ECE was partially purified from EA.hy926 grown in 150 roller; endogenous in cells; host or cells: EA.hy926 (human umbilical vein endothelial cells fused with A549); detergent-solubilised membranes, RCA-I lectin eluate
T2 sequence (P42892 whole entry, looked up): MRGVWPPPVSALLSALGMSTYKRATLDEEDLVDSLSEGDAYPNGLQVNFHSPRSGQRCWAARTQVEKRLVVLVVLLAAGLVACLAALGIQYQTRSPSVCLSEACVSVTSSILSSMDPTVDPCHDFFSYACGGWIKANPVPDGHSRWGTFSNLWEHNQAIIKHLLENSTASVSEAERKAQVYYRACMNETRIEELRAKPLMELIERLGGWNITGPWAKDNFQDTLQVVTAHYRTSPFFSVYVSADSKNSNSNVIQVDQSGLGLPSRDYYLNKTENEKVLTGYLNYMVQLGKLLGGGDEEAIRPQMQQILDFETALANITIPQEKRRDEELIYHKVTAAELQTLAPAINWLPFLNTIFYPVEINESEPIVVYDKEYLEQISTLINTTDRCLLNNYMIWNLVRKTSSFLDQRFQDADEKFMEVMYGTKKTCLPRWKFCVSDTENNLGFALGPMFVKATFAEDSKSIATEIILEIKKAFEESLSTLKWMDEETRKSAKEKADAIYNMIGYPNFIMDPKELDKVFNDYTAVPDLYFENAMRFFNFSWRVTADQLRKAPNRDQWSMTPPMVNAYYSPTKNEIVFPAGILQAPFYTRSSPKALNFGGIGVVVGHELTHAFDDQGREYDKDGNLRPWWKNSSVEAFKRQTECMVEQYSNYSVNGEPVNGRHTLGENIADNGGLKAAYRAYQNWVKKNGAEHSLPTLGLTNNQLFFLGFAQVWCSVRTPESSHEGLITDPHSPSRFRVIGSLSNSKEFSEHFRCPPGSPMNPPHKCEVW

In the case of CC(C)C[C@@H]1NC(=O)[C@@H](C(C)C)NC(=O)[C@@H]2CCCN2C(=O)[C@@H](CC(=O)O)NC(=O)[C@@H](Cc2c[nH]c3ccccc23)NC1=O [BQ-123] (cyclo(L[dW][dD]P[dV])), the “preischemic increase in coronary perfusion pressure induced by big ET-1 and its proischemic effect” value [1] is given as “abolished”, the “ET-1-induced bronchoconstriction and tracheal smooth muscle contraction” value [2] is given as “block ET-1-induced bronchoconstriction and tracheal smooth muscle contraction” and the survival rate [3] is given as “significantly increased the survival rate”.

Work on CCN1CCCC(Nc2nc(C(Cl)(Cl)Cl)nc3ccc(I)cc23)C1 (stereo not drawn) [Example 1, (1-Ethyl-piperidin-3-yl)-(6-iodo-2-trichloromethyl-quinazolin-4-yl)-amine, Monohydrochloride] yielded an IC50 [4] of 4.2 ± 0.5 µM and an IC50 [5] of 6.6 ± 1.5 µM.

Work on CCN1CCCC(Nc2nc(C(Cl)(Cl)Cl)nc3ccc(Cl)cc23)C1 (stereo not drawn) [Example 3, (1-Ethyl-piperidin-3-yl)-(6-chloro-2-trichloromethyl-quinazolin-4-yl)-amine] yielded an IC50 [4] of 14.1 ± 1.5 µM and an IC50 [5] of 14.4 ± 1.1 µM.

In the case of COc1cccc(Oc2c(NS(=O)(=O)c3ccc(C(C)(C)C)cc3)ncnc2OCCO)c1 [RO 46-2005], the “efficacy in models of acute renal ischemia and subarachnoid hemorrhage” value [6] is listed as “effective”.

For CC(=O)N[C@@H](CC(C)C)C(=O)N[C@@H](CC(C)C)C(=O)N[C@H](C=O)CCCNC(=N)N [leupeptin], the “inhibition of the enzyme (in words)” value [4] was “not inhibited”.

In the case of CC(C)CC(=O)N[C@H](C(=O)N[C@H](C(=O)N[C@@H](CC(C)C)[C@@H](O)CC(=O)N[C@@H](C)C(=O)N[C@@H](CC(C)C)[C@@H](O)CC(=O)O)C(C)C)C(C)C [pepstatin A] (Isovaleryl-VV[Sta]A[Sta]-OH), the “inhibition of the enzyme (in words)” value [4] is reported as “not inhibited”.

In the case of CC(C)CC(=O)N[C@H](C(=O)N[C@H](C(=O)N[C@@H](CC(C)C)[C@@H](O)CC(=O)N[C@@H](C)C(=O)N[C@@H](CC(C)C)[C@@H](O)CC(=O)O)C(C)C)C(C)C [pepstatin] (Isovaleryl-VV[Sta]A[Sta]-OH), the “inhibition of ET-1 production” value [7] is given as “did not inhibit ET-1 production”.

With O=S(=O)(F)Cc1ccccc1 [phenylmethlysulfonyl fluoride] the “inhibition of the enzyme (in words)” value [4] was “not inhibited”.

For CC(C)C[C@H](NP(=O)(O)O[C@@H]1O[C@@H](C)[C@H](O)[C@@H](O)[C@H]1O)C(=O)N[C@@H](Cc1c[nH]c2ccccc12)C(=O)O [phosphoramidon], the “effect on ECE activity at NEP-blocking concentration” value [4] is given as “without affecting the ECE activity”, the “NEP 24.11 inhibition” value [8] is given as “completely inhibited” and the “inhibition of intracellular conversion of big ET-1 to ET-1” value [9] is given as “inhibit the intracellular conversion of big ET-1 to ET-1”. For the same molecule, the “block of pressor response of big ET” value [10] was “block the pressor response of big ET”, the “effect on plasma ET-1 level” value [11] was “did not have any effect on the plasma ET-1 level” and the “vasoconstrictor effects evoked by i.v. big ET-1” value [11] was “inhibit vasoconstrictor effects”. For the same molecule, the “block of pressor response of big ET-1” value [12] was “blocked by phosphoramidon in a dose-dependent manner”, the “effects of big ET-1 in the microvasculature” value [13] was “inhibit the effects of big ET-1” and the “lethality induced by the intravenous infusion of big ET-1” value [14] was “suppress the lethality”. The “block of big ET-1 effects on basilar artery caliber and systemic arterial pressure” value [15] was “These effects were blocked by phosphoramidon”, the “preischemic increase in coronary perfusion pressure induced by big ET-1 and its proischemic effect” value [1] was “abolished” and the “infarct size 24 hour postischemia” value [16] was “significantly reduce infarct size”. The “inhibition of hemodynamic actions of big ET-1” value [17] was “phosphoramidon sensitive inhibition of hemodynamic actions of big ET-1”.

In the case of O=C(O)CNC(=O)C(CS)Cc1ccccc1 (stereo not drawn) [thiorphan], the “effect on ECE activity at NEP-blocking concentration” value [4] is reported as “without affecting the ECE activity”, the “inhibition of the enzyme (in words)” value [4] is reported as “not inhibited” and the “NEP 24.11 inhibition” value [8] is reported as “completely inhibited”.

In the case of “ET-1: potent vasoconstrictor, is a 21 amino acid bicyclic peptide”, the IC50 [1] is given as 12 µM, the “time to contracture in globally ischemic rat hearts” value [1] is given as “significantly reduced the time to contracture” and the “tissue type plasminogen activator release, platelet activating formation and gastric mucosal hemorrhagic change” value [18] is given as “increased the tissue type plasminogen activator release and platelet activating formation and induced gastric mucosal hemorrhagic change in a dose-dependent manner”. For the same molecule, the behavioral effects (behavioral effects) was “evoke behavioral effects”.

For “big ET-1: 38 (human) or 39 (porcine) amino acid peptide known as big endothelin or proendothelin (CSCSSLMDKECVYFCHLDIIWVNTPEHVVPYGLGSPRS; ends and bridges not checked; cysteine pairing not given here; UniProt P05305 53-90, looked up)”, the IC50 [1] is given as 0.002 µM, the “time to contracture in globally ischemic rat hearts” value [1] is given as “significantly reduced the time to contracture” and the “potency at raising blood pressure relative to ET-1” value (blood pressure) is given as “equally potent in vivo”.

B1: soybean trypsin inhibitor: soybean trypsin inhibitor (protein, UniProt P01070 25-205, looked up)
Trypsin inhibitor A: DFVLDNEGNPLENGGTYYILSDITAFGGIRAAPTGNERCPLTVVQSRNELDKGIGTIISSPYRIRFIAEGHPLSLKFDSFAVIMLCVGIPTEWSVVEDLPEGPAVKIGENKDAMDGWFRLERVSDDEFNNYKLVFCPQQAEDDKCGDIGISIDHDDGTRRLVVSKNKPLVVQFQKLDKESL
In the case of B1, the “inhibition of the enzyme (in words)” value [19] is reported as “not inhibited”.
